Patent US8916702B2 (priority 2012, dated 2014)

The compounds below were run on HCV pseudoparticles (genotype 1a HCV E1 and E2 envelope, H77C isolate) (assay: microbe, parasite or virus in culture). Settings: Hepatitis C virus, Huh-7, 48 h, HCV pseudoparticle infection of Huh7 cells, luciferase 2 days after infection; average of duplicates.
Format: cell-based
In the case of `COC(=O)[C@H](CCNC(=O)C(=O)NCCn1ccnc1C)NC(=O)c1ccc(Nc2nc(NC3(c4ccc(Cl)cc4)CC3)nc(OCC(F)(F)F)n2)cc1` [Compound 1323], the EC50 is reported as 6.28 nM.

Same assay, conditions: Hepatitis C virus, Huh-7, 48 h, HCV pseudoparticles (genotype 1a, H77C) in Huh7 cells; average of duplicate; luciferase 2 days after infection
Work on `CC(C)(CNC(=O)C(N)=O)CNC(=O)c1ccc(Nc2nc(NC3(c4ccc(Cl)cc4)CC3)nc(OCC(F)(F)F)n2)cc1Cl` [Compound 3477] yielded an EC50 of 0.12 nM.

Same assay, conditions: Hepatitis C virus, Huh-7, 48 h, HCV pseudoparticles, Huh7 cells, luciferase 2 days after infection; average of duplicates
For `NC(=O)C(=O)NCC(CO)(CO)CNC(=O)c1ccc(Nc2nc(NC3(c4ccc(Cl)cc4)CC3)nc(OCC(F)(F)F)n2)cc1` [Compound 3838, N^1-(3-(4-((4-((1-(4-chlorophenyl)cyclopropyl)amino)-6-(2,2,2-trifluoroethoxy)-1,3,5-triazin-2-yl)amino)benzamido)-2,2-bis(hydroxymethyl)propyl)oxalamide], the EC50 was 0.052 nM.

Same assay, conditions: Hepatitis C virus, Huh-7, 48 h, read-out: Activity (EC50 class), HCV pseudoparticle infection of Huh7 cells, luciferase 2 days after infection; EC50 expressed as class A/B
For `O=C(NCC[C@H](NC(=O)c1ccc(Nc2nc(NC3(c4ccc(Cl)cc4)CC3)nc(OCC(F)(F)F)n2)cc1)C(=O)O)C(=O)NCC1(Cn2ccnc2)CC1` [Compound 1429], the EC50 was 0.01 to 10 nM. Work on `CC(C)(CNC(=O)C(=O)Nc1ccc(-c2ccc(C(=O)O)cc2)cc1)CNC(=O)c1ccc(Nc2nc(NC3(c4ccc(Cl)cc4)CC3)nc(OCC(F)(F)F)n2)cc1` [Compound 1542] yielded an EC50 of 0.01 to 10 nM. In the case of `CC(C)c1ccc(NC(=O)C(=O)NCC(C)(C)CNC(=O)c2ccc(Nc3nc(NC4(c5ccc(Cl)cc5)CC4)nc(OCC(F)(F)F)n3)cc2)cc1` [Compound 1589], the EC50 is reported as 0.01 to 10 nM. With `COC(=O)[C@H](CCNC(=O)C(=O)NCCn1ccnc1C)NC(=O)c1ccc(Nc2nc(NC3(c4ccc(Cl)cc4)CC3)nc(OCC(F)(F)F)n2)cc1` [Compound 1323] the EC50 was 0.01 to 10 nM. In the case of `CCOCC1(CNC(=O)C(=O)NCC[C@@H](NC(=O)c2ccc(Nc3nc(NC4(c5ccc(Cl)cc5)CC4)nc(OCC(F)(F)F)n3)cc2)C(=O)OC)CC1` [Compound 1379], the EC50 is reported as 0.01 to 10 nM. `CC1(C)CC(NC(=O)C(=O)NCC[C@H](NC(=O)c2ccc(Nc3nc(NC4(c5ccc(Cl)cc5)CC4)nc(OCC(F)(F)F)n3)cc2)C(=O)O)CC(C)(C)C1` [Compound 1115] was tested, and the EC50 was 0.01 to 10 nM. `O=C(NCC[C@H](NC(=O)c1ccc(Nc2nc(NC3(c4ccc(Cl)cc4)CC3)nc(OCC(F)(F)F)n2)cc1)C(=O)O)C(=O)Nc1cc[nH]n1` [Compound 1265] was tested, and the EC50 was 0.01 to 10 nM. Compound `COC(=O)[C@H](CCNC(=O)C(=O)NCC(C)(C)C)NC(=O)c1ccc(Nc2nc(NC3(c4ccc(Cl)cc4)CC3)nc(OCC(F)(F)F)n2)cc1` [Compound 1195] has an EC50 of 0.01 to 10 nM. `O=C(NCC1(CNC(=O)c2ccc(Nc3nc(NC4(c5ccc(Cl)cc5)CC4)nc(OCC(F)(F)F)n3)cc2)CC1)C(=O)Nc1ccc(F)cc1` [Compound 1566] gave an EC50 of 0.01 to 10 nM. `CC(C)(CNC(=O)C(=O)Nc1ccc(-c2cccc(Cl)c2)cc1)CNC(=O)c1ccc(Nc2nc(NC3(c4ccc(Cl)cc4)CC3)nc(OCC(F)(F)F)n2)cc1` [Compound 1588] was tested, and the EC50 was 0.01 to 10 nM. `COC(=O)[C@H](CCNC(=O)C(=O)NCCc1ccncc1)NC(=O)c1ccc(Nc2nc(NC3(c4ccc(Cl)cc4)CC3)nc(OCC(F)(F)F)n2)cc1` [Compound 1311] showed an EC50 of 0.01 to 10 nM. For `COC(=O)[C@@H](CCNC(=O)C(=O)NCC1(Cn2nc(C)cc2C)CC1)NC(=O)c1ccc(Nc2nc(NC3(c4ccc(Cl)cc4)CC3)nc(OCC(F)(F)F)n2)cc1` [Compound 1383], the EC50 was 0.01 to 10 nM.

Same assay, conditions: Hepatitis C virus, Huh-7, 48 h, read-out: Activity (EC50 class), HCV pseudoparticles, Huh7 cells, luciferase 2 days after infection; average of duplicates
In the case of `O=C(NC[C@H](NC(=O)c1ccc(Nc2nc(NC3(c4ccc(Cl)cc4)CC3)nc(OCC(F)(F)F)n2)cc1)C(=O)O)C(=O)Nc1cccc(Oc2ccccc2)c1` [Compound 3750], the EC50 is reported as 0.01 to 10 nM. For `NC(=O)C(=O)NCC(CO)(CO)CNC(=O)c1ccc(Nc2nc(NC3(c4ccc(Cl)cc4)CC3)nc(OCC(F)(F)F)n2)cc1` [Compound 3838, N^1-(3-(4-((4-((1-(4-chlorophenyl)cyclopropyl)amino)-6-(2,2,2-trifluoroethoxy)-1,3,5-triazin-2-yl)amino)benzamido)-2,2-bis(hydroxymethyl)propyl)oxalamide], the EC50 was 0.01 to 10 nM. `COC(=O)[C@H](CNC(=O)C(=O)Nc1cccc(-n2ccnc2)c1)NC(=O)c1ccc(Nc2nc(NC3(c4ccc(Cl)cc4)CC3)nc(OCC(F)(F)F)n2)cc1` [Compound 3734] gave an EC50 of 0.01 to 10 nM. In the case of `O=C(NCC[C@H](NC(=O)c1ccc(Nc2nc(NC3(c4ccc(Cl)cc4)CC3)nc(OCC(F)(F)F)n2)cc1)C(=O)O)C(=O)Nc1cccc(-c2cnco2)c1` [Compound 3621], the EC50 is reported as 0.01 to 10 nM. `CC(C)(C)c1ccc(Oc2ccc(NC(=O)C(=O)NC[C@H](NC(=O)c3ccc(Nc4nc(NC5(c6ccc(Cl)cc6)CC5)nc(OCC(F)(F)F)n4)cc3)C(=O)O)cn2)cc1` [Compound 3754] gave an EC50 of 0.01 to 10 nM. Compound `Cc1ccc(NC(=O)C(=O)NCC(C)(C)CNC(=O)c2ccc(Nc3nc(NC4(c5ccc(Cl)cc5)CC4)nc(OCc4ccc(C(F)(F)F)cc4)n3)cc2)cc1` [Compound 3851] has an EC50 of 0.01 to 10 nM.

Same assay, conditions: Hepatitis C virus, Huh-7, read-out: Activity (EC50 class), HCV pseudoparticles (genotype 1a, H77C) in Huh7 cells; EC50 expressed as class A/B
Work on `COC(=O)/C(CCNC(=O)C(=O)Nc1cccc(S(=O)(=O)C(F)(F)F)c1)=N\C(=O)c1ccc(Nc2nc(NC3(c4ccc(Cl)cc4)CC3)nc(OCC(F)(F)F)n2)cc1` [Compound 3589] yielded an EC50 of 0.01 to 10 nM. With `COC(=O)[C@H](CCNC(=O)C(=O)Nc1ccc(-c2ccc(C)cc2)cc1)NC(=O)c1ccc(Nc2nc(NC3(c4ccc(Cl)cc4)CC3)nc(OCC(F)(F)F)n2)cc1` [Compound 3305] the EC50 was 0.01 to 10 nM. `Cc1nc(-c2ccc(NC(=O)C(=O)NCCC(NC(=O)c3ccc(Nc4nc(NC5(c6ccc(Cl)cc6)CC5)nc(OCC(F)(F)F)n4)cc3)C(=O)O)cc2)cs1` (centres unmarked) [Compound 3528] was tested, and the EC50 was 0.01 to 10 nM. With `O=C(NC/C(=N/C(=O)c1ccc(Nc2nc(NC3(c4ccc(Cl)cc4)CC3)nc(OCC(F)(F)F)n2)cc1)C(=O)O)C(=O)Nc1ccc(C(=O)N2CCOCC2)cc1` [Compound 3166] the EC50 was 0.01 to 10 nM. Work on `Cc1ccc(NC(=O)C(=O)NCC(C)(C)CNC(=O)c2ccc(Nc3nc(NC4(c5ccc(Cl)cc5)CC4)nc(OCC(F)(F)F)n3)cc2)c(C)n1` [Compound 3073] yielded an EC50 of 0.01 to 10 nM. Compound `CCOc1ccc(NC(=O)C(=O)NCC(C)(C)CNC(=O)c2ccc(Nc3nc(NC4(c5ccc(Cl)cc5)CC4)nc(OCC(F)(F)F)n3)cc2)cc1` [Compound 3062] has an EC50 of 0.01 to 10 nM. `CC(C)(CNC(=O)C(=O)Nc1cccnc1-n1cccn1)CNC(=O)c1ccc(Nc2nc(NC3(c4ccc(Cl)cc4)CC3)nc(OCC(F)(F)F)n2)cc1` [Compound 3256] showed an EC50 of 0.01 to 10 nM. Compound `O=C(Nc1ccc(F)cc1F)C(=O)N(CCO)CCCNC(=O)c1ccc(Nc2nc(NC3(c4ccc(Cl)cc4)CC3)nc(OCC(F)(F)F)n2)cc1` [Compound 3503] has an EC50 of 0.01 to 10 nM. Compound `COC(=O)[C@H](CCNC(=O)C(=O)Nc1ccc(N2Cc3ccccc3C2)cc1)NC(=O)c1ccc(Nc2nc(NC3(c4ccc(Cl)cc4)CC3)nc(OCC(F)(F)F)n2)cc1` [Compound 3306] has an EC50 of 0.01 to 10 nM. Compound `CC(C)(CNC(=O)C(N)=O)CNC(=O)c1ccc(Nc2nc(NC3(c4ccc(Cl)cc4)CC3)nc(OCC(F)(F)F)n2)cc1Cl` [Compound 3477] has an EC50 of 0.01 to 10 nM. `O=C(NC/C(=N/C(=O)c1ccc(Nc2nc(NC3(c4ccc(Cl)cc4)CC3)nc(OCC(F)(F)F)n2)cc1)C(=O)O)C(=O)Nc1ccc(C2CCCCC2)cc1` [Compound 3147] showed an EC50 of 0.01 to 10 nM. Compound `CN(CCCN(C)C(=O)c1ccc(Nc2nc(NC3(c4ccc(Cl)cc4)CC3)nc(OCC(F)(F)F)n2)cc1)C(=O)C(=O)Nc1ccc(F)cc1` [Compound 3412] has an EC50 of 0.01 to 10 nM. `COC(=O)[C@H](CNC(=O)C(=O)Nc1ccc(Cl)cc1)NC(=O)c1ccc(Nc2nc(NC3(c4ccc(Cl)cc4)CC3)nc(OCC(F)(F)F)n2)cc1` [Compound 3081] showed an EC50 of 0.01 to 10 nM. With `Cc1noc2ccc(NC(=O)C(=O)NCC(C)(C)CNC(=O)c3ccc(Nc4nc(NC5(c6ccc(Cl)cc6)CC5)nc(OCC(F)(F)F)n4)cc3F)cc12` [Compound 3565] the EC50 was 0.01 to 10 nM. With `COc1cc(C)ccc1NC(=O)C(=O)NCC(C)(C)CNC(=O)c1ccc(Nc2nc(NC3(c4ccc(Cl)cc4)CC3)nc(OCC(F)(F)F)n2)cc1` [Compound 3070] the EC50 was 0.01 to 10 nM. `CC(C)(CNC(=O)C(=O)Nc1ccc(F)cc1F)CNC(=O)c1ccc(Nc2nc(NC3(c4ccc(Cl)cc4)CC3)nc(OCC(F)(F)F)n2)cc1F` [Compound 3555] gave an EC50 of 0.01 to 10 nM. With `CC(C)(CNC(=O)C(=O)Nc1ccc2ncsc2c1)CNC(=O)c1ccc(Nc2nc(NC3(c4ccc(Cl)cc4)CC3)nc(OCC(F)(F)F)n2)cc1` [Compound 3340] the EC50 was 0.01 to 10 nM.
